Like-named read-outs stand apart in the source and are kept apart here.
Molecular target: T1, GPR39 receptors on m39-20 cell lines (Mus musculus, UniProt Q5U431, T447P)
T1 construct: P2A-mCherry (C); expressed in transfected cells
T1 sequence (Q5U431 1-456 T447P): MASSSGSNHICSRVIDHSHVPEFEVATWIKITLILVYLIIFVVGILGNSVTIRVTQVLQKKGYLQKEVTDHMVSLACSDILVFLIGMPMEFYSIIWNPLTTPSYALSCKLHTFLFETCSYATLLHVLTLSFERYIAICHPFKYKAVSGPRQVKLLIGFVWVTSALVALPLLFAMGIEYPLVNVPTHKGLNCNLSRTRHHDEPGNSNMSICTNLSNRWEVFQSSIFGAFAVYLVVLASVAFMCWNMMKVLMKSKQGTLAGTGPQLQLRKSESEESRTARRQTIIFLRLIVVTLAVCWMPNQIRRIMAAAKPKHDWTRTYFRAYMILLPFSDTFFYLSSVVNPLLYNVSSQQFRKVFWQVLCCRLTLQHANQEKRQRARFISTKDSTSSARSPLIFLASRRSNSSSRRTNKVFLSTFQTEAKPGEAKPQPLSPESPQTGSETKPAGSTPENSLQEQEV
Test: FLIPR calcium imaging on m39-20 cell lines stably expressing murine-derived GPR39
Assay type: cell-based
Settings: for Bile acid + 4 μM zinc ions Efficacy / Only bile acid Efficacy: activation efficacy; for intracellular calcium signals in m39-20 cell lines: FIG. 1; for change of activation efficacy after the addition of zinc ions: Table 1, FIG. 2
From the text: Intracellular calcium imaging is a routine technique to study cell functions, the basic principle of which is to detect the concentration of the calcium ion in tissues or cells using a calcium indicator, thereby reflecting certain reactions in the tissues or cells. In the present application, the intracellular calcium released from a cell line that stably or transiently expresses GPR39 is detected using Fluo8-AM, a calcium fluorescent indicator, so as to determine the activation of the GPR39 receptor by the bile acid and derivative thereof.
HEK293T cells (purchased from ATCC) were seeded in a 6-well plate (coming Co.) at an appropriate density (about 0.5-2×10^5/well). When the cell density reached above 30%, the plasmid PLVXK-mGPR39-P2A-mCherry was transfected with Lipofectamine 3000 (Invitrogen) at a concentration of 2 μg per well. The cells were passaged 24 hours after transfection, the puromycin (gibco) was added into the medium at a concentration of 2 μg/mL for antibiotic screening of cells. After 2-4 days of continuous screening, the cells screened for puromycin resistance were trypsinized and screened by flow cytometry for monoclones with red fluorescence. And these monoclones were seeded in a 96-well plate and cultured in a medium without puromycin for around 10 days. Cell colonies with red fluorescence were sorted under a fluorescence microscope, trypsinized and then passaged and expanded in a 6-well plate. Cell lines m39-20 stably expressing murine-derived GPR39 were obtained through the above methods.
Calcium dye Fluo8-AM (ATT bioquest Co.) was dissolved in DMSO solvent to formulate a stock solution of 1 μg/μL. […] After then, the calcium dye working solution was replaced with the 4K solution (50 μL per well), and acclimated for 5 min at room temperature for the subsequent calcium imaging experiment.
Bile acids and derivatives thereof as listed in Table 1 below were dissolved in dimethyl sulfoxide (DMSO, Sigma Co.) solvent to formulate a stock solution of 50 mM, which was stored at −20° C. During calcium imaging with FLIPR, the drug was diluted with the above 4K solution into a working concentration of 400 μM, and packaged into another 96-well plate. […] The instrument parameters were set so that 50 μL of the drug solution may be added into the culture wells within 2 s. The fluorescence recording result within the first 30 seconds was used as the baseline value. The FLIPR robot arm was programmed to automatically add bile acids and derivatives thereof into the cell sample culture wells at the 31st second. 1% of DMSO solvent was used as the blank control.
After that, the calcium dye working solution was replaced with a 4K solution containing 4 μM zinc ions (50 μL per well), followed by acclimation for 5 min at room temperature.

[1] = Bile acid + 4 μM zinc ions EC50, m39-20 cells, 4 μM zinc ions
[2] = m39-20 cells, no zinc ions, read-out: Only bile acid EC50
[3] = Only bile acid EC50, m39-20 cells, no zinc ions
[4] = m39-20 cells, no zinc ions, read-out: EC50 Only agonist

| EC50 (EC50 Agonist + 4 μM zinc ions, m39-20 cells, 4 μM zinc ions) [µM] | EC50 [4] [µM] | EC50 (read-out: EC50 Agonist + 4 μM zinc ions, m39-20 cells, 4 μM zinc ions) [µM] | Structure (SMILES) | EC50 [1] [µM] | Bile acid + 4 μM zinc ions Efficacy (m39-20 cells, 4 μM zinc ions) [%] | Only bile acid Efficacy (m39-20 cells, no zinc ions) [%] | EC50 [2] [µM] | intracellular calcium signals in m39-20 cell lines | change of activation efficacy after the addition of zinc ions (m39-20 cells) | EC50 [3] [µM] |
| --- | --- | --- | --- | --- | --- | --- | --- | --- | --- | --- |
|  |  |  | C[C@H](CCC(=O)O)[C@H]1CC[C@H]2[C@@H]3[C@H](O)C[C@@H]4C[C@H](O)CC[C@]4(C)[C@H]3C[C@H](O)[C@]12C [CA, Cholic acid] | 49.2 ± 3.3 | 99.3 ± 2.1 | 0 | > 200 |  |  |  |
|  |  |  | C[C@H](CCC(=O)O)[C@H]1CC[C@H]2[C@@H]3CC[C@@H]4C[C@H](OS(=O)(=O)O)CC[C@]4(C)[C@H]3C[C@H](O)[C@]12C [DCAS] | 37.8 ± 1 | 81.9 ± 2.2 | 0 | > 200 | varying extents of intracellular calcium signals | obviously improved |  |
|  |  |  | C[C@H](CCC(=O)NCC(=O)O)[C@H]1CC[C@H]2[C@@H]3[C@H](O)C[C@@H]4C[C@H](O)CC[C@]4(C)[C@H]3C[C@H](O)[C@]12C [GCA] | > 100 | 20 ± 2.7 | 0 | > 200 | varying extents of intracellular calcium signals | obviously improved |  |
|  |  |  | C[C@H](CCC(=O)NCC(=O)O)[C@H]1CC[C@H]2[C@@H]3[C@H](O)C[C@@H]4C[C@H](OS(=O)(=O)O)CC[C@]4(C)[C@H]3CC[C@]12C [GCDCAS] | > 100 | 58.6 ± 2 | 0 | > 200 | varying extents of intracellular calcium signals | obviously improved |  |
|  |  |  | C[C@H](CCC(=O)NCC(=O)O)[C@H]1CC[C@H]2[C@@H]3[C@H](O)C[C@@H]4C[C@H](O)CC[C@]4(C)[C@H]3CC[C@]12C [GCDCA] | 80.6 ± 3.6 | 91.2 ± 4.4 | 16.5 ± 2.4 | > 200 | varying extents of intracellular calcium signals | obviously improved |  |
|  |  |  | C[C@H](CCC(=O)NCC(=O)O)[C@H]1CC[C@H]2[C@@H]3CC[C@@H]4C[C@H](OS(=O)(=O)O)CC[C@]4(C)[C@H]3C[C@H](O)[C@]12C [GDCAS] | > 100 | 58.5 ± 4.8 | 0 | > 200 | varying extents of intracellular calcium signals | obviously improved |  |
|  |  |  | C[C@H](CCC(=O)NCC(=O)O)[C@H]1CC[C@H]2[C@@H]3CC[C@@H]4C[C@H](O)CC[C@]4(C)[C@H]3C[C@H](O)[C@]12C [GDCA] | 46 ± 10.3 | 86.4 ± 6.3 | 7.7 ± 1.7 | > 200 | varying extents of intracellular calcium signals | obviously improved |  |
|  |  |  | C[C@H](CCC(=O)NCC(=O)O)[C@H]1CC[C@H]2[C@@H]3CC[C@@H]4C[C@H](O)CC[C@]4(C)[C@H]3CC[C@]12C [GLCA] | 13.5 ± 3.4 | 74 ± 4.1 | 0 |  | varying extents of intracellular calcium signals | obviously improved | > 200 |
|  |  |  | C[C@H](CCC(=O)NCC(=O)O)[C@H]1CC[C@H]2[C@@H]3[C@@H](O)C[C@@H]4C[C@H](O)CC[C@]4(C)[C@H]3CC[C@]12C [GUDCA] | > 100 | 35.3 ± 6.8 | 0 | > 200 | varying extents of intracellular calcium signals | obviously improved |  |
|  |  |  | C[C@H](CCC(=O)O)[C@H]1CC[C@H]2[C@@H]3CC[C@@H]4C[C@H](O)CC[C@]4(C)[C@H]3CC[C@]12C [LCA, Lithocholic acid] | > 100 | 1.3 ± 1.1 | 0 | > 200 |  |  |  |
|  |  |  | C[C@H](CCC(=O)NCCS(=O)(=O)O)[C@H]1CC[C@H]2[C@@H]3[C@H](O)C[C@@H]4C[C@H](O)CC[C@]4(C)[C@H]3C[C@H](O)[C@]12C [TCA] | > 100 | 31.8 ± 3 | 0 |  | varying extents of intracellular calcium signals | obviously improved | > 200 |
|  |  |  | C[C@H](CCC(=O)NCCS(=O)(=O)O)[C@H]1CC[C@H]2[C@@H]3[C@H](O)C[C@@H]4C[C@H](OS(=O)(=O)O)CC[C@]4(C)[C@H]3CC[C@]12C [TCDCAS] | > 100 | 39.7 ± 3.3 | 0 | > 200 | varying extents of intracellular calcium signals | obviously improved |  |
|  |  |  | C[C@H](CCC(=O)NCCS(=O)(=O)O)[C@H]1CC[C@H]2[C@@H]3CC[C@@H]4C[C@H](OS(=O)(=O)O)CC[C@]4(C)[C@H]3C[C@H](O)[C@]12C [TDCAS] | > 100 | 60.1 ± 5.5 | 0 | > 200 | varying extents of intracellular calcium signals | obviously improved |  |
|  |  |  | C[C@H](CCC(=O)NCCS(=O)(=O)O)[C@H]1CC[C@H]2[C@@H]3CC[C@@H]4C[C@H](O)CC[C@]4(C)[C@H]3C[C@H](O)[C@]12C [TDCA] | 27.6 ± 7.1 | 99.3 ± 1.7 | 22.8 ± 3 | > 200 | varying extents of intracellular calcium signals | obviously improved |  |
| 1.5 | 39 |  | CNc1nc(NCc2ccc(NS(C)(=O)=O)cc2Cl)cc(-c2ccccn2)n1 [TG-G 1008, reference compound] |  |  |  |  |  |  |  |
|  |  |  | C[C@H](CCC(=O)NCCS(=O)(=O)O)[C@H]1CC[C@H]2[C@@H]3CC[C@@H]4C[C@H](O)CC[C@]4(C)[C@H]3CC[C@]12C [TLCA] | 8.1 ± 2.4 | 103.5 ± 1.1 | 47.8 ± 1.1 | 44 ± 10 | varying extents of intracellular calcium signals |  |  |
|  | 42.9 | 3.5 | CCCCCCCCC=CCCCCCCCC(=O)OCC(CO)OC(=O)CCCCCCCC=CCCCCCCCC (stereo not drawn) [TM-N 1324, reference compound] |  |  |  |  |  |  |  |
|  |  |  | C[C@H](CCC(=O)NCCS(=O)(=O)O)[C@H]1CC[C@H]2[C@@H]3[C@@H](O)C[C@@H]4C[C@H](OS(=O)(=O)O)CC[C@]4(C)[C@H]3CC[C@]12C [TUDCAS] | > 100 | 31.4 ± 3.2 | 0 | > 200 | varying extents of intracellular calcium signals | obviously improved |  |
|  |  |  | C[C@H](CCC(=O)O)[C@H]1CC[C@H]2[C@@H]3[C@@H](O)C[C@@H]4C[C@H](O)CC[C@]4(C)[C@H]3CC[C@]12C [UDCA, Ursodeoxycholic acid] | > 100 | 58.5 ± 4 | 0 | > 200 |  |  |  |

Source: patent US12569502B2, “Use of bile acids and derivatives thereof in preparation of GPR39 agonist” (PEKING UNIVERSITY, priority 2019, dated 2026)
